Molecules are shown by their SMILES. Where a SMILES comes first, the peptide text is derived from it. Bridges are numbered along the chain shown (N, C = ends). [ ]: non-standard residue; d: D form. NMeS = CN[C@@H](CO)C(=O)O; NMeA = CN[C@@H](C)C(=O)O; Sar = CNCC(=O)O

The assay addresses T1, human NTCP (Homo sapiens, UniProt Q14973).
T1 construct: made in house; host or cells: wheat germ cell-free protein synthesis system
T1 sequence (Q14973 1-349): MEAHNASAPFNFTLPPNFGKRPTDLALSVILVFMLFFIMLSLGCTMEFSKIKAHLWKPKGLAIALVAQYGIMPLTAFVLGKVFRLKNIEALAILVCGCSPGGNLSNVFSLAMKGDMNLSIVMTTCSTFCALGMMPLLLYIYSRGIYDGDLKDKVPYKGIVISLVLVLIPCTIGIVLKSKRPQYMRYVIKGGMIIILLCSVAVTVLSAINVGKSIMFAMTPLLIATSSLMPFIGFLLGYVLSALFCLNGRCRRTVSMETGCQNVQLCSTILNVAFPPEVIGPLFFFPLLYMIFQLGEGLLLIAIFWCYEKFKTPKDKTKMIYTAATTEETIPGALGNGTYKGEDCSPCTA
Description: Surface plasmon resonance binding to immobilized recombinant NTCP. As to conditions: Kd, single-cycle kinetics, 1:1 binding model, NTCP immobilized on NTA-Ni2+. As for the experimental part: FIG. 7 is a diagram showing the NTCP association constant of a peptide identified by first RaPID screening. A single-cycle reaction kinetics experiment was conducted using NTCP immobilized on surface (NTA-Ni^2+) involving varying concentrations of a cyclic peptide analyte. In each case, as shown in the drawing, the peptide was tested with 4-fold serial dilutions starting from the highest concentration of 200 or 1000 nM. A dissociation constant (KD) was determined using a 1:1 binding model.
FIG. 9 is a diagram showing the NTCP association constant of a peptide identified by focused library RaPID screening. A single-cycle association constant experiment was conducted using NTCP immobilized on surface (NTA-Ni^2+) involving varying concentrations of a cyclic peptide analyte. In each case, as shown in the drawing, the peptide was tested with 4-fold serial dilutions starting from the highest concentration of 200 or 1000 nM. A dissociation constant (KD) was determined using a 1:1 binding model.
The association constant of each peptide for human NTCP was measured using a Biacore T200 apparatus (GE Healthcare Japan Corp.). The running buffer solution used was HBS-P+ (10 mM HEPES, 150 mM NaCl, and 0.05 vol % surfactant P20, pH 7.4) containing 0.1 vol % DMSO and 1 mM β-dodecyl-maltoside. 100 nM recombinant NTCP was immobilized on a NTA chip treated with Ni^2+ according to the manufacturer's instructions (baseline response: 1000 to 3000 refraction units). Peptides were injected as analytes at a flow rate of 60 μL/min, and association constants were modelled using a 1:1 binding model.
Background: SPR reads the build-up and loss of mass on a sensor chip optically.
In the case of `CC(C)C[C@@H]1NC(=O)[C@H](Cc2ccc(O)cc2)NC(=O)CSC[C@@H](C(=O)NCC(N)=O)NC(=O)[C@H](CC(C)C)NC(=O)[C@H](CO)NC(=O)[C@H]([C@@H](C)O)NC(=O)[C@H](C(C)C)NC(=O)[C@H]([C@@H](C)O)NC(=O)[C@H](Cc2c[nH]c3ccccc23)NC(=O)[C@H](CC(N)=O)NC(=O)[C@H](CO)NC(=O)[C@H](Cc2c[nH]cn2)NC(=O)[C@H](Cc2c[nH]c3ccccc23)NC(=O)[C@H]([C@@H](C)O)NC(=O)[C@H](Cc2c[nH]c3ccccc23)NC(=O)[C@H]([C@@H](C)O)NC(=O)[C@H](Cc2ccc(O)cc2)NC1=O` [L1] ({CH2CO}-YLYTWTWHSNWTVTSLCG-NH2; thioether N-17), the Kd (commonly a measure of binding affinity in units of concentration) was 21 nM.
Consider `CC(C)C[C@@H]1NC(=O)[C@H](Cc2ccc(O)cc2)NC(=O)[C@H](C)NC(=O)[C@H](CO)N(C)C(=O)[C@H](Cc2c[nH]cn2)NC(=O)[C@H](Cc2c[nH]c3ccccc23)NC(=O)[C@H]([C@@H](C)O)NC(=O)[C@H](Cc2c[nH]c3ccccc23)NC(=O)[C@H]([C@@H](C)O)NC(=O)[C@H](Cc2ccc(O)cc2)NC(=O)CSC[C@@H](C(=O)N[C@H](C(N)=O)[C@@H](C)O)NC(=O)[C@H](Cc2ccccc2)NC(=O)[C@H](C(C)C)NC(=O)[C@H](Cc2ccc(O)cc2)NC1=O` [WL3] ({CH2CO}-YTWTWH[NMeS]AYLYVFCT-NH2; thioether N-14), for which the Kd was 57 nM.
Next, `CC[C@H](C)[C@@H]1NC(=O)CN(C)C(=O)[C@H](CO)NC(=O)[C@H](Cc2ccc(O)cc2)NC(=O)[C@H](CCCCN)NC(=O)[C@H](Cc2ccc(O)cc2)NC(=O)[C@H]([C@@H](C)O)NC(=O)[C@H](Cc2ccc(O)cc2)NC(=O)CSC[C@@H](C(=O)N[C@H](C(N)=O)[C@@H](C)O)NC(=O)[C@H](Cc2c[nH]c3ccccc23)NC(=O)[C@H]([C@@H](C)CC)NC(=O)[C@H](Cc2c[nH]c3ccccc23)NC(=O)[C@H]([C@@H](C)CC)NC(=O)[C@H](Cc2c[nH]c3ccccc23)NC1=O` [WL1] ({CH2CO}-YTYKYS[Sar]IWIWIWCT-NH2; thioether N-14): 360 nM.
For the compound `CC[C@H](C)[C@@H]1NC(=O)[C@H](Cc2c[nH]c3ccccc23)NC(=O)[C@H](CC(C)C)NC(=O)[C@H](Cc2ccc(O)cc2)NC(=O)CSC[C@@H](C(=O)NCC(N)=O)NC(=O)CNC(=O)[C@H](CC(C)C)NC(=O)[C@H](CC(=O)O)NC(=O)[C@H](Cc2ccccc2)NC(=O)[C@H]([C@@H](C)O)NC(=O)[C@H](Cc2ccc(O)cc2)NC(=O)[C@H](Cc2c[nH]c3ccccc23)NC(=O)[C@H](CC(N)=O)NC(=O)[C@H](CCC(N)=O)NC(=O)[C@H](Cc2c[nH]cn2)NC(=O)[C@H](Cc2ccccc2)NC1=O` [L3] ({CH2CO}-YLWIFHQNWYTFDLGCG-NH2; thioether N-16), the Kd stood at 13 nM.
Turning to `CC[C@H](C)[C@@H]1NC(=O)[C@H](Cc2c[nH]c3ccccc23)NC(=O)[C@H]([C@@H](C)O)NC(=O)[C@@H](Cc2ccc(O)cc2)NC(=O)CSC[C@@H](C(=O)N[C@H](C(N)=O)[C@@H](C)O)NC(=O)[C@@H]2CCCN2C(=O)[C@H](Cc2ccccc2)NC(=O)[C@H](Cc2ccc(O)cc2)NC(=O)[C@H](C(C)C)NC(=O)[C@H](C(C)C)NC(=O)[C@H](Cc2ccc(O)cc2)NC(=O)[C@H](CC(C)C)NC(=O)CN(C)C(=O)CN(C)C(=O)[C@H](Cc2c[nH]c3ccccc23)NC1=O` [WD2] ({CH2CO}-[dY]TWIW[Sar][Sar]LYVVYFPCT-NH2; thioether N-15), the equilibrium dissociation constant (Kd) is 14 nM.
Turning to `CC[C@H](C)[C@@H]1NC(=O)[C@H](Cc2c[nH]cn2)NC(=O)[C@H]([C@@H](C)CC)NC(=O)[C@H](CO)N(C)C(=O)[C@@H]2CCCN2C(=O)[C@H](Cc2ccc(O)cc2)NC(=O)[C@H](Cc2ccc(O)cc2)NC(=O)[C@H]([C@@H](C)CC)NC(=O)[C@H](Cc2ccc(O)cc2)NC(=O)[C@H](CC(N)=O)NC(=O)[C@@H](Cc2ccc(O)cc2)NC(=O)CSC[C@@H](C(=O)N[C@H](C(N)=O)[C@@H](C)O)NC(=O)[C@H](CC(C)C)NC(=O)[C@H](Cc2ccc(O)cc2)NC(=O)[C@H](Cc2ccccc2)NC1=O` [PD1] ({CH2CO}-[dY]NYIYYP[NMeS]IHIFYLCT-NH2; thioether N-15), the Kd came out at 149 nM.
On to `CC[C@H](C)[C@@H]1NC(=O)[C@H](Cc2ccc(O)cc2)NC(=O)[C@H](Cc2ccc(O)cc2)NC(=O)[C@H](Cc2c[nH]cn2)NC(=O)[C@H](Cc2c[nH]cn2)NC(=O)[C@H]([C@@H](C)O)NC(=O)[C@H](CC(N)=O)NC(=O)[C@H](Cc2c[nH]c3ccccc23)NC(=O)[C@H]([C@@H](C)O)NC(=O)[C@H](Cc2ccc(O)cc2)NC(=O)CSC[C@@H](C(=O)NCC(N)=O)NC(=O)[C@H](CC(N)=O)NC(=O)[C@H](CC(C)C)NC(=O)[C@H](Cc2c[nH]c3ccccc23)NC1=O` [L5] ({CH2CO}-YTWNTHHYYIWLNCG-NH2; thioether N-14), for which the Kd was found to be 4 nM.
For `CC[C@H](C)[C@@H]1NC(=O)[C@H](Cc2ccc(O)cc2)NC(=O)[C@H](CC(C)C)NC(=O)[C@H](C)NC(=O)[C@H]([C@@H](C)O)NC(=O)[C@H](CC(N)=O)NC(=O)[C@H](Cc2c[nH]c3ccccc23)NC(=O)[C@H](CCC(=O)O)NC(=O)[C@@H]2CCCN2C(=O)[C@H](Cc2ccc(O)cc2)NC(=O)[C@H](Cc2c[nH]c3ccccc23)NC(=O)[C@H](Cc2ccc(O)cc2)NC(=O)[C@H](Cc2c[nH]cn2)NC(=O)[C@@H](Cc2ccc(O)cc2)NC(=O)CSC[C@@H](C(=O)NCC(N)=O)NC(=O)[C@@H]2CCCN2C(=O)[C@H](Cc2c[nH]c3ccccc23)NC1=O` [D3] ({CH2CO}-[dY]HYWYPEWNTALYIWPCG-NH2; thioether N-17), the Kd turned out to be 50 nM.
For `CC(C)C[C@@H]1NC(=O)[C@H](Cc2ccccc2)NC(=O)[C@H](C)NC(=O)[C@H](CO)N(C)C(=O)[C@H](CC(N)=O)NC(=O)[C@H](Cc2c[nH]c3ccccc23)NC(=O)[C@H]([C@@H](C)O)NC(=O)[C@H](Cc2c[nH]c3ccccc23)NC(=O)[C@H]([C@@H](C)O)NC(=O)[C@H](Cc2ccc(O)cc2)NC(=O)CSC[C@@H](C(=O)N[C@H](C(N)=O)[C@@H](C)O)NC(=O)[C@H](Cc2ccc(O)cc2)NC(=O)[C@H](C(C)C)NC(=O)[C@H](Cc2ccc(O)cc2)NC1=O` [WL6] ({CH2CO}-YTWTWN[NMeS]AFLYVYCT-NH2; thioether N-14), the Kd stood at 36 nM.
For `CC[C@H](C)[C@@H]1NC(=O)[C@H](Cc2c[nH]c3ccccc23)NC(=O)[C@H]([C@@H](C)CC)NC(=O)[C@H](Cc2ccccc2)NC(=O)[C@H](CO)NC(=O)[C@H](CC(N)=O)NC(=O)[C@H](CCC(N)=O)NC(=O)[C@H](Cc2c[nH]c3ccccc23)NC(=O)[C@H]([C@@H](C)O)NC(=O)[C@H](Cc2c[nH]c3ccccc23)NC(=O)[C@H]([C@@H](C)O)NC(=O)[C@H](Cc2ccc(O)cc2)NC(=O)CSC[C@@H](C(=O)N[C@H](C(N)=O)[C@@H](C)O)NC(=O)[C@H](Cc2ccc(O)cc2)NC1=O` [WL5] ({CH2CO}-YTWTWQNSFIWIYCT-NH2; thioether N-14), the Kd came out at 10 nM.
Next, `CC(C)C[C@@H]1NC(=O)[C@H](CC(=O)O)NC(=O)[C@H](CC(C)C)NC(=O)[C@H](Cc2ccccc2)NC(=O)[C@H](Cc2c[nH]c3ccccc23)NC(=O)[C@H](CO)NC(=O)[C@H](CCCNC(=N)N)NC(=O)[C@H](CCC(=O)O)NC(=O)[C@H](C)NC(=O)[C@H](Cc2c[nH]c3ccccc23)NC(=O)[C@H](CC(C)C)NC(=O)[C@H](CC(C)C)NC(=O)[C@H](Cc2c[nH]c3ccccc23)NC(=O)[C@H](C(C)C)NC(=O)[C@H](Cc2ccc(O)cc2)NC(=O)CSC[C@@H](C(=O)NCC(N)=O)NC(=O)CNC1=O` [L2] ({CH2CO}-YVWLLWAERSWFLDLGCG-NH2; thioether N-17): 374 nM; `CC(C)C[C@@H]1NC(=O)[C@H](Cc2ccc(O)cc2)NC(=O)CSC[C@@H](C(=O)NCC(N)=O)NC(=O)[C@H](C(C)C)NC(=O)[C@H](CC(N)=O)NC(=O)[C@H](Cc2ccc(O)cc2)NC(=O)[C@H](C)NC(=O)[C@H](Cc2ccc(O)cc2)NC(=O)[C@H](CO)NC(=O)[C@H]([C@@H](C)O)NC(=O)[C@H](CC(N)=O)NC(=O)[C@@H]2CCCN2C(=O)[C@H](Cc2c[nH]c3ccccc23)NC(=O)[C@H]([C@@H](C)O)NC(=O)[C@H](Cc2c[nH]c3ccccc23)NC(=O)[C@H](CC(C)C)NC(=O)[C@H](Cc2ccc(O)cc2)NC1=O` [L4] ({CH2CO}-YLYLWTWPNTSYAYNVCG-NH2; thioether N-17): 30 nM.
Consider `CC[C@H](C)[C@@H]1NC(=O)[C@H](Cc2c[nH]c3ccccc23)NC(=O)[C@H]([C@@H](C)CC)NC(=O)[C@H](CCC(N)=O)NC(=O)[C@H](C)N(C)C(=O)[C@H](Cc2ccc(O)cc2)NC(=O)[C@H]([C@@H](C)O)NC(=O)[C@H](Cc2ccccc2)NC(=O)[C@H]([C@@H](C)O)NC(=O)[C@@H](Cc2ccc(O)cc2)NC(=O)CSC[C@@H](C(=O)N[C@H](C(N)=O)[C@@H](C)O)NC(=O)CN(C)C(=O)[C@H](Cc2ccc(O)cc2)NC(=O)[C@H](Cc2ccc(O)cc2)NC(=O)[C@H](Cc2c[nH]c3ccccc23)NC1=O` [WD4] ({CH2CO}-[dY]TFTY[NMeA]QIWIWYY[Sar]CT-NH2; thioether N-15), for which the Kd came out at 11 nM.

The record behind these values is patent publication US20210061859A1, “NTCP Inhibitor” (The University of Tokyo, priority 2018, published 2021).
